Molecules are shown by their SMILES. pIC50: −log10 of the molar value.

The experiment deals with T1, Acetylcholinesterase (Rattus norvegicus, UniProt P37136).
T1 sequence (P37136 whole entry): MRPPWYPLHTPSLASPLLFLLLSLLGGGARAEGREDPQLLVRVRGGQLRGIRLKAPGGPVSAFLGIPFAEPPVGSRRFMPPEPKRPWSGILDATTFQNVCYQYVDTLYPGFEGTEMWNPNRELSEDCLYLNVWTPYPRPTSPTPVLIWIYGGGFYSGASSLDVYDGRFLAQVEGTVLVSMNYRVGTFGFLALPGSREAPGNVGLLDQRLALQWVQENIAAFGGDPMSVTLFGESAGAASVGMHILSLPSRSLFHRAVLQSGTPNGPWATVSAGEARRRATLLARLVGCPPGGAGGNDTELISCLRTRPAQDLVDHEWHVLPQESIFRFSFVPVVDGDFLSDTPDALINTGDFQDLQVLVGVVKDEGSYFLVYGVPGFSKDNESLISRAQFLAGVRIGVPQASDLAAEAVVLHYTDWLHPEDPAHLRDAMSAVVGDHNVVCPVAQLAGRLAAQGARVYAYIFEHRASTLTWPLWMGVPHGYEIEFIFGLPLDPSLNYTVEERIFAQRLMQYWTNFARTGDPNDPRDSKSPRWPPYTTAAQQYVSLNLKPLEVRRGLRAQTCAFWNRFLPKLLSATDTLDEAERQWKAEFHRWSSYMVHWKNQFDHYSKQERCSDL
Description: In vitro inhibitory effect on rat Acetylcholinesterase
The pIC50 is the IC50 on a negative log10 scale, so that one unit is a factor of ten. The low end stands for a large IC50, the high end for a small IC50. The compound `CN(CCOCCNC(=S)NC(=O)c1ccccc1)Cc1ccccc1` had a pIC50 of 6.92. To `CN(CCOCCNC(=S)NC(=O)C1=CC2C(=O)c3ccccc3C(=O)C2C=C1)Cc1ccccc1` (configuration not stated) belongs 8.22; to `CN(CCOCCNC(=S)NC(=O)c1ccc2c(c1)-c1ccccc1C2=O)Cc1ccccc1`, 7.52.

Compound `CN(CCOCCNC(=S)Nc1ccc(OC(F)(F)F)cc1)Cc1ccccc1` showed a pIC50 of 6.00. This pIC50 lies 1.52 log units lower than the previous one. On to `CN(CCOCCCNC(=S)NC(=O)c1ccccc1)Cc1ccccc1`, for which the pIC50 was 5.96. To `CN(CCOCCNC(=S)NC(=O)c1ccc(-c2ccccc2)cc1)Cc1ccccc1` belongs 6.64; to `CN(CCOCCNC(=S)NC(=O)c1ccc(Cl)c(Cl)c1)Cc1ccccc1`, 7.26. Compound `Cc1ccc(C(=O)NC(=S)NCCOCCN(C)Cc2ccccc2)cc1` gave a pIC50 of 7.11. To `CN(CCOCCNC(=S)NC(=O)c1ccccc1)C1CCCCC1` belongs 7.89; to `COc1ccc(NC(=S)NCCOCCN(C)Cc2cccc([N+](=O)[O-])c2)cc1OC`, 5.82; to `CCN(CCOCCNC(=O)NCc1ccccc1)CC1CCCCC1`, less than 5.00. Regarding `CN(CCOCCNC(=S)Nc1cccc2ccccc12)Cc1ccccc1`, the negative logarithm of the IC50 (pIC50) was less than 5.00. To `CN(CCOCCNC(S)=NC(=O)c1cccc([N+](=O)[O-])c1)Cc1ccccc1` belongs 7.82; to `COc1ccc(C(=O)NC(=S)NCCOCCN(C)Cc2ccccc2)cc1`, 7.59. To `CN(CCOCCNC(=O)Nc1ccc([N+](=O)[O-])cc1)Cc1ccccc1` belongs 5.64. To `CN(CCOCCNC(=S)NC1CCCCC1)Cc1ccccc1` belongs 5.85; to `CN(CCOCC/N=C(\S)Nc1cccnc1)Cc1ccccc1`, 5.40.

The values above are taken from ChEMBL document CHEMBL1128491, “Flexible 1-[(2-aminoethoxy)alkyl]-3-ar(o)yl(thio)ureas as novel acetylcholinesterase inhibitors. Synthesis and biochemical evaluation” (J Med Chem, 1995).
